From ChEMBL document CHEMBL3885881, “DrugMatrix”

Species: Rattus norvegicus
Experiment: DrugMatrix - Regimen: Daily Repeat
Type: toxicity, organism-based, Sprague-Dawley
Parameters: regimen Daily Repeat, gender Male, age 6-8 weeks
Settings: in vivo, po, route oral GAVAGE, […]; for ABSOLUTE BASOPHIL / ABSOLUTE EOSINOPHIL / ABSOLUTE LYMPHOCYTE / ABSOLUTE MONOCYTE / ABSOLUTE SEGMENTED NEUTROPHIL / BASOPHIL / EOSINOPHIL / ERYTHROCYTE COUNT / HEMATOCRIT / HEMOGLOBIN / LEUKOCYTE COUNT / LYMPHOCYTE / MEAN CORPUSCULAR HEMOGLOBIN / MEAN CORPUSCULAR HEMOGLOBIN CONCENTRATION / MEAN CORPUSCULAR VOLUME / MONOCYTE / NEUTROPHIL / NUCLEATED RED BLOOD CELLS / PLATELET COUNT: tissue Blood; for ALANINE AMINOTRANSFERASE / ALBUMIN / ALKALINE PHOSPHATASE / ASPARTATE AMINOTRANSFERASE / BLOOD UREA NITROGEN / CARBON DIOXIDE / CHLORIDE / CHOLESTEROL / CREATINE PHOSPHOKINASE / CREATININE / GLUCOSE / LACTATE DEHYDROGENASE / LIPASE / PHOSPHORUS / POTASSIUM / SODIUM / TOTAL BILIRUBIN / TOTAL PROTEIN / URIC ACID: tissue Plasma
[1] = 2 mg/kg, 120 h, dose level High, time 5 day
[2] = 72 h, dose 0.58 mg/Kg, dose level Low, time 3 day
[3] = 120 h, dose 0.58 mg/Kg, dose level Low, time 5 day

COc1ccc2c(c1)c(CC(=O)OCC(=O)O)c(C)n2C(=O)c1ccc(Cl)cc1 [ACEMETACIN]
ABSOLUTE BASOPHIL [1]: 0 CELLS/uL | ABSOLUTE EOSINOPHIL [1]: 198 CELLS/uL | ABSOLUTE LYMPHOCYTE [1]: 16941.67 CELLS/uL | ABSOLUTE MONOCYTE [1]: 330.33 CELLS/uL | ABSOLUTE SEGMENTED NEUTROPHIL [1]: 2163.33 CELLS/uL | BASOPHIL [1]: 0% | EOSINOPHIL [1]: 1% | ERYTHROCYTE COUNT [1]: 6.35 x10E6/uL | HEMATOCRIT [1]: 38.5% | HEMOGLOBIN [1]: 14.23 G/DL | LEUKOCYTE COUNT [1]: 19.63 x10E3/uL | LYMPHOCYTE [1]: 86.33% | MEAN CORPUSCULAR HEMOGLOBIN [1]: 22.47 pg | MEAN CORPUSCULAR HEMOGLOBIN CONCENTRATION [1]: 36.97 G/DL | MEAN CORPUSCULAR VOLUME [1]: 60.67 fL | MONOCYTE [1]: 1.67% | NEUTROPHIL [1]: 11% | NUCLEATED RED BLOOD CELLS [1]: 0 /100WBC | PLATELET COUNT [1]: 1196 x10E3/uL | ALANINE AMINOTRANSFERASE [1]: 77 u/L | ALBUMIN [1]: 4.33 G/DL | ALKALINE PHOSPHATASE [1]: 434 u/L | ASPARTATE AMINOTRANSFERASE [1]: 106.33 u/L | BLOOD UREA NITROGEN [1]: 15.33 mg/dL | CARBON DIOXIDE [1]: 26 mmol/L | CHLORIDE [1]: 102 MEQ/L | CHOLESTEROL [1]: 58 mg/dL | CREATINE PHOSPHOKINASE [1]: 673.33 u/L | CREATININE [1]: 0.19 mg/dL | GLUCOSE [1]: 155.33 mg/dL | LACTATE DEHYDROGENASE [1]: 783.33 u/L | LIPASE [1]: 10 u/L | PHOSPHORUS [1]: 11.9 mg/dL | POTASSIUM [1]: 6.17 MEQ/L | SODIUM [1]: 143.57 MEQ/L | TOTAL BILIRUBIN [1]: 0.2 mg/dL | TOTAL PROTEIN [1]: 5.87 G/DL | URIC ACID [1]: 1.93 mg/dL | ABSOLUTE BASOPHIL [2]: 0 CELLS/uL | ABSOLUTE EOSINOPHIL [2]: 126 CELLS/uL | ABSOLUTE LYMPHOCYTE [2]: 13647.33 CELLS/uL | ABSOLUTE MONOCYTE [2]: 360 CELLS/uL | ABSOLUTE SEGMENTED NEUTROPHIL [2]: 1833.33 CELLS/uL | BASOPHIL [2]: 0% | EOSINOPHIL [2]: 0.67% | ERYTHROCYTE COUNT [2]: 5.77 x10E6/uL | HEMATOCRIT [2]: 35.7% | HEMOGLOBIN [2]: 13.3 G/DL | LEUKOCYTE COUNT [2]: 15.97 x10E3/uL | LYMPHOCYTE [2]: 85.67% | MEAN CORPUSCULAR HEMOGLOBIN [2]: 23.07 pg | MEAN CORPUSCULAR HEMOGLOBIN CONCENTRATION [2]: 37.23 G/DL | MEAN CORPUSCULAR VOLUME [2]: 61.97 fL | MONOCYTE [2]: 2.33% | NEUTROPHIL [2]: 11.33% | NUCLEATED RED BLOOD CELLS [2]: 0 /100WBC | PLATELET COUNT [2]: 1055 x10E3/uL | ALANINE AMINOTRANSFERASE [2]: 66 u/L | ALBUMIN [2]: 3.93 G/DL | ALKALINE PHOSPHATASE [2]: 319 u/L | ASPARTATE AMINOTRANSFERASE [2]: 94 u/L | BLOOD UREA NITROGEN [2]: 16.33 mg/dL | CARBON DIOXIDE [2]: 27 mmol/L | CHLORIDE [2]: 102.33 MEQ/L | CHOLESTEROL [2]: 67.33 mg/dL | CREATINE PHOSPHOKINASE [2]: 359 u/L | CREATININE [2]: 0.19 mg/dL | GLUCOSE [2]: 160.33 mg/dL | LACTATE DEHYDROGENASE [2]: 379.33 u/L | LIPASE [2]: 9.67 u/L | PHOSPHORUS [2]: 11.53 mg/dL | POTASSIUM [2]: 6.9 MEQ/L | SODIUM [2]: 144.43 MEQ/L | TOTAL BILIRUBIN [2]: 0.2 mg/dL | TOTAL PROTEIN [2]: 5.37 G/DL | URIC ACID [2]: 1.47 mg/dL | ABSOLUTE BASOPHIL [3]: 0 CELLS/uL | ABSOLUTE EOSINOPHIL [3]: 113 CELLS/uL | ABSOLUTE LYMPHOCYTE [3]: 13989.33 CELLS/uL | ABSOLUTE MONOCYTE [3]: 257.33 CELLS/uL | ABSOLUTE SEGMENTED NEUTROPHIL [3]: 2073.67 CELLS/uL | BASOPHIL [3]: 0% | EOSINOPHIL [3]: 0.67% | ERYTHROCYTE COUNT [3]: 6.2 x10E6/uL | HEMATOCRIT [3]: 37.73% | HEMOGLOBIN [3]: 13.77 G/DL | LEUKOCYTE COUNT [3]: 16.43 x10E3/uL | LYMPHOCYTE [3]: 85.33% | MEAN CORPUSCULAR HEMOGLOBIN [3]: 22.23 pg | MEAN CORPUSCULAR HEMOGLOBIN CONCENTRATION [3]: 36.53 G/DL | MEAN CORPUSCULAR VOLUME [3]: 60.93 fL | MONOCYTE [3]: 1.67% | NEUTROPHIL [3]: 12.33% | NUCLEATED RED BLOOD CELLS [3]: 0 /100WBC | PLATELET COUNT [3]: 1216 x10E3/uL | ALANINE AMINOTRANSFERASE [3]: 65.33 u/L | ALBUMIN [3]: 4.53 G/DL | ALKALINE PHOSPHATASE [3]: 452 u/L | ASPARTATE AMINOTRANSFERASE [3]: 90.33 u/L | BLOOD UREA NITROGEN [3]: 19.67 mg/dL | CARBON DIOXIDE [3]: 26.67 mmol/L | CHLORIDE [3]: 105 MEQ/L | CHOLESTEROL [3]: 58.33 mg/dL | CREATINE PHOSPHOKINASE [3]: 293.67 u/L | CREATININE [3]: 0.22 mg/dL | GLUCOSE [3]: 163.33 mg/dL | LACTATE DEHYDROGENASE [3]: 355 u/L | LIPASE [3]: 9 u/L | PHOSPHORUS [3]: 11.6 mg/dL | POTASSIUM [3]: 6.5 MEQ/L | SODIUM [3]: 145.13 MEQ/L | TOTAL BILIRUBIN [3]: 0.13 mg/dL | TOTAL PROTEIN [3]: 6.27 G/DL | URIC ACID [3]: 1.97 mg/dL
